We go through eleven compounds from patent US20070224253A1, “Transdermal Delivery of Meptazinol” (Shire Pharmaceuticals Inc., priority 2005, published 2007).

As a reminder, the solubility is the dissolved amount per volume that the medium holds.

In brackets after ≈: the same amount, converted by molar mass. Several values for one entry are separate records, joined by “and”; a condition that tells them apart may be missing. Equal values may be shown once. Entries after “also recorded” stand apart in the source; their conditions may differ. Where a name gives a salt, the structure may show the parent alone. Marks after values point to notes of the source that are not given here.

The nature of data set [1]: Yellow discoloration of the meptazinol gel on standing, effect of antioxidants. It counts as physicochemical. The settings on record: antioxidant included in meptazinol gel; BHT 0.02-0.05%, ascorbic acid 0.05%.
The nature of data set [2]: Transdermal permeation through human skin in Franz cell in vitro apparatus. The settings on record: for Skin flux / permeation compared with other forms (in words): Franz cell; for Flux: individual Franz cell/donor; for Flux / Mean flux ± sd: vehicle 2% oleic acid: 2% dimethyl isosorbide: 96% propylene glycol; for Mean flux ± sd: mean over donors.
A short description of data set [3]: Saturated solubility in potential delivery vehicle (oleic acid/dimethyl isosorbide/propylene glycol). Particulars: in 2% oleic acid: 2% dimethyl isosorbide: 96% propylene glycol; for solubility: 2% oleic acid: 2% dimethyl isosorbide: 96% propylene glycol, 32 °C, organic solvent or mixture, thermodynamic from solid, Solubility at 32° C.
The next data set can be described thus: Aqueous solubility. Particulars: aqueous solution. The format is physicochemical.
For data set [4] the following is noted: cited from earlier work.
Where [5] appears, read: estimated from visual assessment only.
Setting [6] is: listed as M HCl (1), hydrochloride.
[7] abbreviates: listed as M HCl (2), hydrochloride.

Consider `O=C1O[C@H]([C@@H](O)CO)C(O)=C1O` [Ascorbic acid], for which the “Effect on yellow discoloration of the gel” value (from here on “Effect”) in data set [1] is listed as “some reduction”.
As to Meptazinol tosylate, in data set [2], the “Skin flux / permeation compared with other forms (in words)” value is reported as “less effective in improving flux” and the “Mean flux ± sd” value was 135.9 ± 82.5 ug/cm^2/h. Besides, in data set [2] (listed as M tosylate), the Flux is 158.8 ug/cm^2/h and 165.0 ug/cm^2/h and 90.9 ug/cm^2/h and 39.6 ug/cm^2/h and 273.7 ug/cm^2/h and 87.4 ug/cm^2/h. Further, the “Solubility at 32° C.” value in data set [3] (setting [5]) is “˜140** mg/ml”.
In the case of `Cc1cc(C(C)(C)C)c(O)c(C(C)(C)C)c1` [butylated hydroxy toluene], the “Effect” value in data set [1] is listed as “completely eliminated”.
In the case of `CCC1(c2cccc(O)c2)CCCCN(C)C1` (stereo not drawn) [Meptazinol hydrochloride, reference compound], the “Skin flux / permeation compared with other forms (in words)” value in data set [2] (listed as hydrochloride, hydrochloride) is “more rapidly absorbed”; in data set [2] (listed as meptazinol hydrochloride, hydrochloride), “much better permeant than the maleate; also recorded: higher flux rate than the camsylate; also recorded: substantially greater flux than the free base; also recorded: several times better than the meptazinol free base”. Also, the Flux is 135.7 ug/cm^2/h and 218.0 ug/cm^2/h and 132.6 ug/cm^2/h and 197.1 ug/cm^2/h and 194.0 ug/cm^2/h and 162.5 ug/cm^2/h in data set [2] (setting [6]); 66.5 ug/cm^2/h and 222.6 ug/cm^2/h and 213.4 ug/cm^2/h (2×) in data set [2] (setting [7]). Further, the “Mean flux ± sd” value is on record as 173.3 ± 35.2 ug/cm^2/h in data set [2] (setting [6]) and 179.0 ± 75.1 ug/cm^2/h in data set [2] (setting [7]). Moreover, the solubility in data set [3] (measured by HPLC) was 78 mg/mL.
As to `Oc1cccc(O)c1O` [pyrogallol], in data set [1], the “Effect” value is recorded as “did not”.
In the case of Meptazinol maleate, the Flux in data set [2] (listed as M maleate) is 41.3 ug/cm^2/h and 91.3 ug/cm^2/h and 85.3 ug/cm^2/h and 93.9 ug/cm^2/h. In addition, the “Mean flux ± sd” value in data set [2] is given as 78.0 ± 24.7 ug/cm^2/h. Further, in data set [3] (measured by HPLC), the “Solubility at 32° C.” value was 105* mg/ml.
Regarding `Cc1c(C)c2c(c(C)c1O)CC[C@@](C)(CCC[C@H](C)CCC[C@H](C)CCCC(C)C)O2` [alpha tocopherol], in data set [1], the “Effect” value is “did not”.
For `CCC1(c2cccc(O)c2)CCCCN(C)C1` (stereo not drawn) [Meptazinol free base, Meptazinol], the concentration in solution in the data set “Aqueous solubility” (solubility) came to 0.17 mg/mL (≈ 0.729 mM). In data set [4] (in vivo), the Plasma half-life was 1.5 to 2.0 h. In addition, in data set [4] (oral), the “Fraction of an oral dose removed by first pass metabolism through the liver” value is reported as “up to 98.1%” and the “Oral bioavailability, reported mean values” is reported as 4-9%. The “Skin flux / permeation compared with other forms (in words)” value in data set [2] is “unexpectedly poor flux in comparison to the various salt forms”. Besides, in data set [3] (setting [5]), the solubility was about 20 mg/mL (≈ 85.7 mM).
Regarding `COc1ccc(O)c(C(C)(C)C)c1` [butylated hydroxy anisole], in data set [1], the “Effect” value is “did not”.
`CC1(C)C2CCC1(CS(=O)(=O)O)C(=O)C2.CCC1(c2cccc(O)c2)CCCCN(C)C1` (stereo not drawn) [Meptazinol camsylate]: in data set [2], the “Skin flux / permeation compared with other forms (in words)” value is “less effective in improving flux” and the “Mean flux ± sd” value was 79.2 ± 71.2 ug/cm^2/h. For the same compound, the Flux in data set [2] (listed as M camsylate) was 78.1 ug/cm^2/h and 110.9 ug/cm^2/h and 27.3 ug/cm^2/h and 45.1 ug/cm^2/h and 204.2 ug/cm^2/h and 9.5 ug/cm^2/h. Also, the “Solubility at 32° C.” value in data set [3] (setting [5]) was “˜250** mg/ml”.
In the case of Meptazinol trifluoroacetate, in data set [2], the “Skin flux / permeation compared with other forms (in words)” value was “more rapidly absorbed” and the “Mean flux ± sd” value was 224.4 ± 167.6 ug/cm^2/h. The Flux in data set [2] (listed as M TFA) is 29.1 ug/cm^2/h and 422.2 ug/cm^2/h and 163.8 ug/cm^2/h and 282.3 ug/cm^2/h. Moreover, in data set [3] (measured by HPLC), the “Solubility at 32° C.” value is given as 170* mg/ml.
